Assay results taken from PubChem BioAssay (NCI).
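Protocol summary: plate cells (96-well), add compound at 5 concentrations, incubate 48 h, interpolate endpoints linearly. TGI: concentration producing complete growth inhibition.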

Key:
Test in all cases: NCI-60 cell line screen, 48 h
DU-145 prostate = test system: DU-145 prostate
SNB-75 CNS = test system: SNB-75 CNS
SF-295 CNS = test system: SF-295 CNS
SF-539 CNS = test system: SF-539 CNS
NCI-H460 lung = test system: NCI-H460 lung
LOX IMVI melanoma = test system: LOX IMVI melanoma
MALME-3M melanoma = test system: MALME-3M melanoma
MCF7 breast = test system: MCF7 breast
MDA-MB-231 breast = test system: MDA-MB-231 breast
SK-MEL-5 melanoma = test system: SK-MEL-5 melanoma
ACHN renal = test system: ACHN renal
MOLT-4 leukemia = test system: MOLT-4 leukemia
OVCAR-4 ovarian = test system: OVCAR-4 ovarian
NCI-H23 lung = test system: NCI-H23 lung
MDA-MB-435 = test system: MDA-MB-435
HL-60(TB) leukemia = test system: HL-60(TB) leukemia
SK-OV-3 ovarian = test system: SK-OV-3 ovarian
UO-31 renal = test system: UO-31 renal

Structure (SMILES) | TGI (DU-145 prostate) [µM] | TGI (SNB-75 CNS) [µM] | TGI (SF-295 CNS) [µM] | TGI (SF-539 CNS) [µM] | TGI (NCI-H460 lung) [µM] | TGI (LOX IMVI melanoma) [µM] | TGI (MALME-3M melanoma) [µM] | TGI (MCF7 breast) [µM] | TGI (MDA-MB-231 breast) [µM] | TGI (SK-MEL-5 melanoma) [µM] | TGI (ACHN renal) [µM] | TGI (MOLT-4 leukemia) [µM] | TGI (OVCAR-4 ovarian) [µM] | TGI (NCI-H23 lung) [µM] | TGI (MDA-MB-435) [µM] | TGI (HL-60(TB) leukemia) [µM] | TGI (SK-OV-3 ovarian) [µM] | TGI (UO-31 renal) [µM]
Nc1c2ccccc2nc2ccc(C(=O)Nc3ccc(S(N)(=O)=O)cc3)cc12 | > 100 | > 100 | > 100 | > 100 | > 100 | > 100 | > 100 | > 100 | > 100 | > 100 | > 100 | > 100 | > 100 | > 100 | > 100 | > 100 | > 100 | > 100
N#Cc1c(C#N)c(-c2ccco2)n(/N=C/c2ccco2)c1N | > 100 | 40 | > 100 | > 100 | > 100 | > 100 | > 100 | > 100 | 36.3 | > 100 | > 100 | > 100 | > 100 | > 100 | > 100 | > 100 | > 100 | > 100
O=C1c2c(ccc3c2CCCC3)CC12Cc1ccccc1C2 | > 100 | > 100 | > 100 | > 75.3 | > 47.1 | 29.4 | 34.9 | > 76.6 | 52.7 | 22.3 | 97.1 | > 35.4 | > 100 | > 96.2 | > 100 | 38.8 | > 100 | 68.5
O=c1n(CCO)nc2n1CCCN2 | > 100 | > 100 | > 100 | > 100 | > 100 | > 100 | > 100 | > 100 | > 100 | > 100 | > 100 | > 100 | > 100 | > 100 | > 100 | > 100 | > 100 | > 100
COc1cc2c(cc1C)NC(=O)/C2=C/c1c(Cl)n(C)c2ccccc12 | 23.6 | 13.4 | 29.4 | 56.5 | 29.1 | 22.7 | 22.5 | 25.7 | 65.1 | 22 | 25.7 | 72.7 | 25 | 21.6 | 3.69 | 8.94 | 39.8 | 22.9
O=S(=O)(CC#CCS(=O)(=O)c1ccccc1)c1ccccc1 | 17.4 | 5.55 | 43.6 | 6.86 | 38.9 | 3.32 | 3.82 | 6.7 | 26.5 | 10.4 | 3.25 | > 42.2 | 3.71 | 12.2 | 3.83 | 16.1 | 27.5 | 2.65
CCC(c1ccc(N(C)C)cc1)C1NC(=S)NC1=O (stereo not drawn) | > 100 | > 100 | > 100 | > 100 | > 100 | > 100 | > 100 | > 100 | > 100 | > 100 | > 100 | > 100 | > 100 | > 100 | > 100 | 46.3 | > 100 | > 100
O=C(C(=O)n1ccc2ccccc21)c1c[nH]c2ccccc12 | > 10 | > 10 | > 10 | > 10 | > 10 | > 10 | > 10 | > 10 | > 10 | > 10 | > 10 | > 10 | > 10 | > 10 | > 10 | > 10 | > 10 | > 10
O=S(=O)(N1CCCCN(S(=O)(=O)C(F)(F)F)CCCN(S(=O)(=O)C(F)(F)F)CCCN(S(=O)(=O)C(F)(F)F)CCCCN(S(=O)(=O)C(F)(F)F)CCCN(S(=O)(=O)C(F)(F)F)CCC1)C(F)(F)F | > 100 | 92.8 | 82.1 | 84.1 | > 100 | > 100 | 49.5 | > 100 | > 100 | > 100 | > 100 | > 100 | > 100 | > 100 | > 100 | > 100 | > 100 | > 100
CCN1CCc2sc3[nH]c(=S)n(C)c(=O)c3c2C1 | > 100 | > 100 | > 100 | > 100 | > 100 | > 100 | > 100 | > 100 | > 100 | > 100 | > 100 | > 100 | > 100 | > 100 | > 100 | 1.83 | > 100 | > 100
CCCCCCc1cc2cc(C(=O)Nc3cccc(C(F)(F)F)c3)c(=N)oc2cc1O | 3.3 | 3.01 | 14.1 | 3.59 | > 32.1 | 3.09 | 6.2 | 6.47 | 7.69 | 2.45 | > 34.7 | 4.19 | 14.3 | 1.76 | 5.18 | 6.98 | 10.1 | > 29.2
